# Data: ChEMBL document CHEMBL1156408, “Parasitenone, a new epoxycyclohexenone related to gabosine from the marine-derived fungus Aspergillus parasiticus” (J Nat Prod, 2002)
# How the values were obtained:
# Type in all cases: functional
# [1] = Antioxidant activity assessed as nitric oxide radical scavenging activity
# [2] = test system: Radical scavenging activity; assay: Antioxidant activity assessed as DPPH free radical scavenging activity
# [3] = Antioxidant activity assessed as superoxide radical scavenging activity
# [4] = Antioxidant activity assessed as peroxy nitrite free radical scavenging activity
IC50 [1] [µM],IC50 [2] [µM],IC50 [3] [µM],IC50 [4] [µM],Compound
0.5,0.6,11,3.1,OCc1cc(O)c(O)c(Cl)c1
0.4,1.4,> 50,2.2,OCc1cc(O)ccc1O [GENTISYL ALCOHOL]
–,57,–,52.6,O=C1C=C(CO)[C@H](O)[C@@H]2O[C@H]12 [PARASITENONE]

Compound,IC50 [1] [µM],IC50 [2] [µM],IC50 [3] [µM],IC50 [4] [µM]
CC1(C)N([O])C(c2ccc(C(=O)O)cc2)=[N+]([O-])C1(C)C,138,–,–,–
